Measurements as given in US6660742B2, “Compositions and methods of the use thereof achiral analogues of CC-1065 and the duocarmycins” (priority 2000, dated 2003).
Where two headings read alike, the source gives them in different places.

Experiments:
[1] = mice; therapeutic doses; cited from earlier work
[2] = test system: mouse L1210 leukemia cells; conditions: cited from earlier work; for IC50 values (range in words): growth of mouse L1210 leukemia cells in culture
P815 mastocytoma cells = assay: MTT cytotoxicity on P815 cells; type: cell-based, murine; conditions: 72 hr incubation
Method: (§1) The P815 and L1210 cell lines were obtained from American Type Tissue Culture Collection (ATCC). The cell lines were grown in Delbecco's Modified Eagle Medium (DMEM, Atlanta Biologicals) supplemented with 10% fetal bovine serum, Hepes Buffer (2 mM, Mediatech Cellgro, 25-060-Cl), L-Glutamine (2 mM, Mediatech Cellgro), and penicillin/streptomycin (50,000 units penicillin, 50,000 […], Atlanta Biologicals). Cells were maintained at 37° C. in a 5% humidified CO2 atmosphere. Cultured cells were counted using a hemocytometer and resuspended in fresh DMEM at a concentration of 8×10^5 cells/mL. This cell suspension (100 μL) was added to 96 well flat -bottom cell culture plates. At this concentration, 80,000 cells were seeded in each well. Drug solutions (dissolved in DMSO and diluted in DMEM) were added to each well (5 μL/well) resulting in final concentrations ranging from 1×10^−4 to 1×10^−12 M. Quadruplicate wells were prepared for each drug concentration. The plates were incubated for 72 hr at 37° C. in a 5% CO2 atmosphere. MTT (3-(4,5-dimethylthiazol-2-yl)-2,5-diphenyl tetrazolium bromide) was dissolved in PBS (5 mg/ml). After the indicated cell incubation period, 10 μL of this stock MTT solution was added to each well and the plates were further incubated for 4 h at 37° C. in a 5% CO2 atmosphere. […] The contents of the well were mixed thoroughly by pipetting the cell suspension up and down and the plates were allowed to sit at room temperature for 15 min in order to allow for full development of the purple color. The plates were read on a Dynatech Plate Reader, utilizing Dynex Revelation 3.2 software, with a test wavelenth of 570 nm and a reference wavelength of 630 nm.

L1210 leukemia cells = assay: MTT cytotoxicity on L1210 cells; type: cell-based, murine; conditions: 72 hr incubation
Method: as §1

plasmid pBR322 DNA = assay: Taq polymerase stop assay; type: biochemical
[3] = test system: human tumor cells in hollow fibers; assay: NCI hollow fiber assay, all cell lines; type: in vivo, mice
supercoil pBR322 DNA = assay: pBR322 strand nicking assay; type: biochemical
Excerpt: When a compound is covalently bound to a purine-N3 in the minor groove of DNA, the adduct is thermally unstable. It is readily hydrolyzed to produce a DNA strand (2). Consequently, the formation of adenine-N3 (or guanine-N3) alkylation adducts can be detected by thermal conversion of supercoil pBR322 DNA (Form I) to nicked open […] DNA (Form II) as a result of the formation of single strand breaks. These two different forms of pBR322 DNA can then be separated by agarose gel electrophoresis, and the relative amounts of each form can be determined by densitometry of methylene blue stained gels (39). The supercoil form of pBR322 DNA is more compact than the open circular form, and as a result, moves further down the gel towards the positive electrode.
Solutions of the drugs dissolved in N,N-dimethylacetamide (DMA) were made at 0.10 mM concentrations, and were always stored in the refrigerator.
Tris buffer solution at pH 7.4 at 25° C. and 0.010 M was made from Tris HCl (0.661 g), Tris base (0.097 g) diluted to a 100 mL volume with distilled water. Then EDTA-Na2—2H2O (0.186 g) and KCl (3.72 g) were added to the Tris HCl solution and diluted to 500 mL volume with distilled water. A TBE solution was prepared from Carolina Lot #4020602 Electrophoresis buffer 20 times TBE diluted to a volume of three liters with deionized water. The agarose gel was prepared from agarose low EEO (0.32 g) dissolved in TBE buffer (40 mL) and heated in a microwave oven until dissolved.
The pBR322 DNA (100 μg/100 μL) from Pharmacia Biotech was in a buffer (10 mM Tris-HCl pH 7.5, and 1 mM EDTA). The DNA was prepared from plasmid DNA isolated from E. coli HB101 by the alkaline lysate procedure and was purified by Sepharcryl S-100 chromatography followed by CsCl-ethidium bromide centrifugation.
The alkylation samples were prepared by adding DNA (10 μL), Tris-EDTA KCl buffer (18 μL), and compound (2 μL) at 100 μM concentration to Eppendorf tubes. The samples were incubated at 40° C. for 40 h. The samples were removed then centrifuged for one minute. 10% SDS (sodium dodecylsulfate) (2 μL), 50% glycerol (5 μL), and bromophenol blue (2 μL) were added to the samples. The contents of the tubes were mixed with a Vortex mixer then centrifuged to consolidate the samples. The agarose gel was covered with TBE-buffer in the chamber. The samples were loaded onto the agarose gel and run at 40 V for three hours, or when the band were about three/fourths of the way down the gel.
The gel was removed and stained with methylene blue (45 min). At this time, the stained gel was placed in a water chamber overnight. The intensities of each band i.e. Form I and II were determined using densitometry.

[4] = test system: panel of 60 human cancer cell lines; assay: NCI in-vitro cytotoxicity screen, whole panel; type: cell-based; conditions: for range of activity: 48 hour exposure
[5] = test system: human colon adenocarcinoma cell line, LS 174T; assay: SRB cytotoxicity on LS174T cells; type: cell-based
Method: Cells were seeded in 96-well microtiter plates at densities of 1000 cells/well. The optimal seeding density was determined to ensure exponential growth in control wells throughout the experimental period and to obtain a linear relationship between absorbance at 492 nm and cell number when analyzed by the sulforhodamine B (SRB) assay (43). 24 hours after seeding the cells were incubated for 1 hour or continuously for 3 days with the drugs (concentration range 0.01 to 500 μM). The cells were washed once and then incubated in drug free medium for 6 days. At the end of the incubation cell growth was determined by the SRB assay, which quantifies viable cells by measuring their total cellular protein content. […] Similar studies were conducted against the growth of PC3 (human prostate cancer cells) and MCF-7 (human breast cancer cells).

[6] = test system: K562 human chronic myeloid leukemia cells; assay: MTT cytotoxicity on K562 cells; type: cell-based
L1210 leukemia = conditions: carzelesin 400 μg/kg, adozelesin 100 μg/kg; cited from earlier work
[7] = 0.1 mM compound, 40° C. for 40 h
[8] = Homo sapiens, K562, 1 h, read-out: IC50 1 hour exposure

COC(=O)c1cc2c([nH]1)C(=O)C=C1N(C(=O)c3cc4cc(OC)c(OC)c(OC)c4[nH]3)CC3CC123 (single isomer, unassigned; (+)) [DUMSA, (+)-duocarmycin SA]
delayed lethality / delayed toxicity [1]: devoid of this toxic side effect | IC50 values (range in words) [2]: pM range

Cl.Cn1cc(NC(=O)c2cccn2C)cc1C(=O)NCCCCNC(=O)CCCC(=O)Nc1ccc2oc(C(=O)Nc3cc(O)ccc3CCCl)cc2c1 [Compound 17, N-[(N-(4-Aminobutyl)-N-methylpyrrole-4-(N-methylpyrrole-2-carboxamido)-2-carboxamido)]-N-[5-(4-(2-chloroethyl)phenol-3-yl)benzofuran-2-carboxamido)]glutarodiamide hydrochloride]
IC50 (P815 mastocytoma cells): 61 µM | IC50 (L1210 leukemia cells): 64 µM

COc1cc2cc(C(=O)N3CC(CCl)c4c3cc(O)c3ccccc43)[nH]c2c(OC)c1OC (stereo not shown) [Compound 28, seco-CBI-trimethoxyindole, reference compound]
covalent DNA AT sequence selectivity (plasmid pBR322 DNA): preferentially at a five consecutive A(865)AAAA sequence

COc1cc2cc(C(=O)Nc3cc(N)c4ccccc4c3CCCl)[nH]c2c(OC)c1OC [Compound 25, 4-(2-chloroethyl)-3-(5,6,7-trimethoxyindole-2-carboxamido)-1-naphthylamine]
cell kill [3]: cell kill observed | composite score ([3]; IP+SC): 54 | IP score ([3]; intraperitoneal fibers): 46 | SC score ([3]; subcutaneous fibers): 8 | covalent DNA AT sequence selectivity (plasmid pBR322 DNA): preferentially at a five consecutive A(865)AAAA sequence | Form II DNA (%) (supercoil pBR322 DNA; [7]): quantitative | range of activity [4]: micromolar range | activity against leukemia cells [4]: none of these compounds showed much activity | activity against melanoma cells [4]: active | activity against solid tumors cells [4]: strong activity

N-[(N-(4-Aminobutyl)-N-methylpyrrole-4-(N-methylimidazole-2-carboxamido)-2-carboxamido)]-N-[5-(4-(2-chloroethyl)phenol-3-yl)benzofuran-2-carboxamido)]glutarodiamide hydrochloride [Compound 18]
IC50 (P815 mastocytoma cells): > 100 µM | additional unique alkylation site (plasmid pBR322 DNA): 3′-GCAACG-5′ | alkylation of the 5′-AAAAA sequence (plasmid pBR322 DNA): did not alkylate | alkylation selectivity (sequence) (plasmid pBR322 DNA): 3′-ATTT-5′ | IC50 (L1210 leukemia cells): > 100 µM | Form II DNA (%) (supercoil pBR322 DNA): quantitative

CCCC(=O)Nc1cc(C(=O)Nc2cc(C(=O)Nc3ccc(O)cc3CCBr)n(C)c2)n(C)c1 [Compound 7, N-(2-(2-Bromoethyl)-4-hydroxyphenyl)-1-methyl-4-(1-methyl-4-butanamidopyrrole-2-carboxamido)pyrrole-2-carboxamide]
IC50 ([5]; Homo sapiens, 1 h, read-out: IC50 LS174T 1 hour exposure): 237 µM | activity in words ([5]; one hour exposure): not active | IC50 [6, 8]: > 100 µM | IC50 ([6]; Homo sapiens, K562, 72 h, read-out: IC50 continuous exposure (3 days)): 3.64 ± 0.05 µM | activity in words ([6]; K562, one hour exposure): not active

COc1cc2cc(C(=O)Nc3cc(N)ccc3CCCl)[nH]c2c(OC)c1OC [Compound 24, 4-(2-Chloroethyl)-3-(5,6,7-trimethoxyindole-2-carboxamido)aniline]
Form II DNA (%) (supercoil pBR322 DNA; [7]): quantitative

4-(2-Bromoethyl)-3-[5-(5-benzofuran-2-carboxamido)indole-2-carboxamido]phenol [Compound 2]
sequence selectivity (plasmid pBR322 DNA): stronger sequence selectivity than 27 | efficiency in alkylating DNA (plasmid pBR322 DNA; compared with chloro-compound 1): less efficient in alkylating DNA | IC50 ([6]; K562 cells, continuous exposure (3 days), read-out: IC50 continuous exposure (3 days)): 1.6 ± 0.9 µM | IC50 ([6]; read-out: IC50 1 hour exposure, K562 cells, 1 hour exposure): 23.8 ± 9.7 µM

Cc1c[nH]c2c(O)cc3c(c12)[C@H](CCl)CN3C(=O)c1cc2cc(NC(=O)Nc3ccc4[nH]c(C(=O)N5C[C@@H](CCl)c6c5cc(O)c5[nH]cc(C)c65)cc4c3)ccc2[nH]1 [Bizelesin]
IC50 [2]: 0.001 nM | potency relative to (+)-CC1065 [2]: 20-30 times

COc1cc2cc(C(=O)Nc3cc(O)c4ccccc4c3CCCl)[nH]c2c(OC)c1OC [Compound 26, 4-(2-Chloroethyl)-3-(5,6,7-trimethoxyindole-2-carboxamido)-1-naphthol]
covalent DNA AT sequence selectivity (plasmid pBR322 DNA): preferentially at a five consecutive A(865)AAAA sequence | Form I DNA (%) (supercoil pBR322 DNA; [7]): 0% | Form II DNA (%) (supercoil pBR322 DNA; [7]): quantitative | range of activity [4]: micromolar range | activity against leukemia cells [4]: none of these compounds showed much activity | activity against melanoma cells [4]: active | activity against solid tumors cells [4]: strong activity

COc1c2c(c3cc(C(=O)N4CCc5c4c(OC)c(O)c4[nH]c(C(=O)N6CC7C[C@@]78C6=CC(=O)c6[nH]cc(C)c68)cc54)[nH]c3c1O)CCN2C(N)=O (single isomer, unassigned; (+)) [(+)-CC1065]
delayed lethality / delayed toxicity [1]: delayed lethality | IC50 ([2]; L1210): 0.02 nM | IC50 values (range in words) [2]: pM range

CCN(CC)c1ccc2cc(C(=O)Nc3ccc4[nH]c(C(=O)N5C[C@@H](CCl)c6c5cc(OC(=O)Nc5ccccc5)c5[nH]cc(C)c65)cc4c3)oc2c1 [carzelesin]
ILS (L1210 leukemia): 150±8% | survival (L1210 leukemia): 2/6

N-[(N-(4-Aminobutyl)-N-methylimidazole-4-(N-methylpyrrole-2-carboxamido)-2-carboxamido)]-N-[5-(4-(2-chloroethyl)phenol-3-yl)benzofuran-2-carboxamido)]glutarodiamide hydrochloride [Compound 19]
IC50 (P815 mastocytoma cells): > 100 µM | additional unique alkylation site (plasmid pBR322 DNA): 3′-(G)CA-5′ | alkylation of the 5′-AAAAA sequence (plasmid pBR322 DNA): did not alkylate | alkylation selectivity (sequence) (plasmid pBR322 DNA): 3′-ATTT-5′ | IC50 (L1210 leukemia cells): > 100 µM | Form II DNA (%) (supercoil pBR322 DNA): quantitative

CCCC(=O)Nc1cc(C(=O)Nc2cc(C(=O)Nc3ccc(O)cc3CCCl)n(C)c2)n(C)c1 [Compound 6, N-(2-(2-Chloroethyl)-4-hydroxyphenyl)-1-methyl-4-(1-methyl-4-butanamidopyrrole-2-carboxamido)pyrrole-2-carboxamide]
IC50 [6, 8]: > 30 µM

Cl.Cn1cc(NC(=O)c2cccn2C)cc1C(=O)NCCCCNC(=O)CCCC(=O)Nc1ccc2oc(C(=O)Nc3cc(O)ccc3CCCl)cc2c1 [Compound 17]
alkylation of the 5′-AAAAA sequence (plasmid pBR322 DNA): did not alkylate | alkylation selectivity (sequence) (plasmid pBR322 DNA): 3′-ATTT-5′ | Form II DNA (%) (supercoil pBR322 DNA): quantitative
